Values joined by “and” are separate entries in the source; they are usually repeats but may differ in a detail not shown here. Equal values may be shown once.

Among the targets are Vasopressin V1a receptor (Homo sapiens, UniProt P37288); Melanocortin receptor 4 (Homo sapiens, UniProt P32245); D(3) dopamine receptor (Homo sapiens, UniProt P35462).
In a further assay the target is T1, Glucocorticoid receptor (Homo sapiens, UniProt P04150).
T1 sequence (P04150 whole entry): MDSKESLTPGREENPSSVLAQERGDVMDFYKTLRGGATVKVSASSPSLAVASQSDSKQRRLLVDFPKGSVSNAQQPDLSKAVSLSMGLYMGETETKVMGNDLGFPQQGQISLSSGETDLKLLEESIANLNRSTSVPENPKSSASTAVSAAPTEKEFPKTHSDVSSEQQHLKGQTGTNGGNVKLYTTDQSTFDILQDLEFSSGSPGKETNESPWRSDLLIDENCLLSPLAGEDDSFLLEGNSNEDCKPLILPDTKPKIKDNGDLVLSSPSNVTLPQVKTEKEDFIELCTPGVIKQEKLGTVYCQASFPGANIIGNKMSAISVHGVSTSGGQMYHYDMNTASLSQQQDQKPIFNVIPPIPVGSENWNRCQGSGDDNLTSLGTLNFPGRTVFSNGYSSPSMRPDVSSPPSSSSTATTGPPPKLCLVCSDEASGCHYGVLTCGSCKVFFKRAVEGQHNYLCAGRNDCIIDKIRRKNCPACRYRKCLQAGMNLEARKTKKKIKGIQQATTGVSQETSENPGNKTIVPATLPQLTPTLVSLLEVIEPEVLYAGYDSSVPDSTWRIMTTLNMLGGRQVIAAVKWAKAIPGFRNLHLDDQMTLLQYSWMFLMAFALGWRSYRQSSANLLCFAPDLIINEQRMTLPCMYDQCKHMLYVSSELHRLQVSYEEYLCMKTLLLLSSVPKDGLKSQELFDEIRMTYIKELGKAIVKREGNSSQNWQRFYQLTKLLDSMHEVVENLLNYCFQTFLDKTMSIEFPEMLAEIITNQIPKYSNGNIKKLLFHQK

Assay [1] has as its target T2, 5-hydroxytryptamine receptor 2B (Homo sapiens, UniProt P41595). Format: functional, cell-based.
In assay [2] the target is T3, Alpha-1A adrenergic receptor (Homo sapiens, UniProt P35348).
T3 sequence (P35348 whole entry): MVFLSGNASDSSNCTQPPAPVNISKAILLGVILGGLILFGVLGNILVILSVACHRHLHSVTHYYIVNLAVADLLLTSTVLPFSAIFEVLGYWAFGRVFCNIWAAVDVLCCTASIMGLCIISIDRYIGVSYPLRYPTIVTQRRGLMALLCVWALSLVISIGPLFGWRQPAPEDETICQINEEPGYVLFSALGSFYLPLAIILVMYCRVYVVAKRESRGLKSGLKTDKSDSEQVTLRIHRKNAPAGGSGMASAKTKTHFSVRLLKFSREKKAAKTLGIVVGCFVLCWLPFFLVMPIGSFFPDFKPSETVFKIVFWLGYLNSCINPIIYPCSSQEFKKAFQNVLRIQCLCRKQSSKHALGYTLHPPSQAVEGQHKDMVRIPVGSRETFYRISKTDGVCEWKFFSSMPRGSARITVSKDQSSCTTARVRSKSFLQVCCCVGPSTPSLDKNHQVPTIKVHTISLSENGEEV
Format: functional, cell-based.

Another assay deals with Prothrombin (Homo sapiens, UniProt P00734). Format: functional.
For assay [3], the target named is T4, Muscarinic acetylcholine receptor M2 (Homo sapiens, UniProt P08172).
T4 sequence (P08172 whole entry): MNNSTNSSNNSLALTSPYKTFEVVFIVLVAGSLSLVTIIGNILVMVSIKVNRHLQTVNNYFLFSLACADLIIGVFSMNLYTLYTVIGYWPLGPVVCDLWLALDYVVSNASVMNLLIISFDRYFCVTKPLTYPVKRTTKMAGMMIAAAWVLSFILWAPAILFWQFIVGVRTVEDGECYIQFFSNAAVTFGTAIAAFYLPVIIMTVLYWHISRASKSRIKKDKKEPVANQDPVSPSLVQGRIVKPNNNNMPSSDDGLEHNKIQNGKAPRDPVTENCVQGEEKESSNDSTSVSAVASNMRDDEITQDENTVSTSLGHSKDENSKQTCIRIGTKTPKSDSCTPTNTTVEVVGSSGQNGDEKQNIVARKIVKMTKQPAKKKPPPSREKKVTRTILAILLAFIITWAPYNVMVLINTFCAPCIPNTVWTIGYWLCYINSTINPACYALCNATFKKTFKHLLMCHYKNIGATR

In assay [4] the target is T2, 5-hydroxytryptamine receptor 2B. Format: functional, cell-based. This is another data set of the same source.
A further assay addresses T5, Thromboxane A2 receptor (Homo sapiens, UniProt P21731).
T5 sequence (P21731 whole entry): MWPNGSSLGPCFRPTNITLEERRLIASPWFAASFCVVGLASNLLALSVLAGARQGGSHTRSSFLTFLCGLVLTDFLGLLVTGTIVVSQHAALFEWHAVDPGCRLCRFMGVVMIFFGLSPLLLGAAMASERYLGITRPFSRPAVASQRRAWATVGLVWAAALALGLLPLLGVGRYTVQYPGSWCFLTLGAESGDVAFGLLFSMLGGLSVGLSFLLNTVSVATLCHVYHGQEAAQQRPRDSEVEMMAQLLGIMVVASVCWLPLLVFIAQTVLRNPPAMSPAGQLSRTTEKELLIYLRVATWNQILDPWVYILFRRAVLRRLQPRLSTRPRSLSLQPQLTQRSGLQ
Format: functional, cell-based.

Assay [5] has as its target Prostaglandin G/H synthase 1 (Homo sapiens, UniProt P23219). Format: functional.
Assay [6] addresses 3',5'-cyclic-AMP phosphodiesterase 4A (Homo sapiens, UniProt P27815). Format: functional.
For another assay, the target named is Acetylcholinesterase (Homo sapiens, UniProt P22303). Format: functional.
Acetylcholinesterase, sequence (P22303 whole entry): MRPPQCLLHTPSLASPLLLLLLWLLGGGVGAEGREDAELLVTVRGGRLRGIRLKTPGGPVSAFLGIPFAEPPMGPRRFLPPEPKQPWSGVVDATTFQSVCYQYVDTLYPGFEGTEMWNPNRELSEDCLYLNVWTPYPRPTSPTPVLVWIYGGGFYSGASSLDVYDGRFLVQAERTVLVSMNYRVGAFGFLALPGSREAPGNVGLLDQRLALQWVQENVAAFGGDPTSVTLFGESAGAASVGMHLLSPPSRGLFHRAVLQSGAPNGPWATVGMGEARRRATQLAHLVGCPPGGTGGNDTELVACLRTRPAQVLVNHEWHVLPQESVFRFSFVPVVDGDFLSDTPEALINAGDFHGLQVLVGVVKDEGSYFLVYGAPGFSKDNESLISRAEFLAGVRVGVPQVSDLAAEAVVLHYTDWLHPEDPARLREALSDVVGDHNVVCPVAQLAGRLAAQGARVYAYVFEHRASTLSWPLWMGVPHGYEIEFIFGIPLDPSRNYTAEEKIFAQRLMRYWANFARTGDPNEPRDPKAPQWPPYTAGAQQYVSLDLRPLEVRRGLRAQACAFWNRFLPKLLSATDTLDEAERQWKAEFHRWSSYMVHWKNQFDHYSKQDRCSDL
Note: assay procedure not described here.

3',5'-cyclic-AMP phosphodiesterase 4A, sequence (P27815 whole entry): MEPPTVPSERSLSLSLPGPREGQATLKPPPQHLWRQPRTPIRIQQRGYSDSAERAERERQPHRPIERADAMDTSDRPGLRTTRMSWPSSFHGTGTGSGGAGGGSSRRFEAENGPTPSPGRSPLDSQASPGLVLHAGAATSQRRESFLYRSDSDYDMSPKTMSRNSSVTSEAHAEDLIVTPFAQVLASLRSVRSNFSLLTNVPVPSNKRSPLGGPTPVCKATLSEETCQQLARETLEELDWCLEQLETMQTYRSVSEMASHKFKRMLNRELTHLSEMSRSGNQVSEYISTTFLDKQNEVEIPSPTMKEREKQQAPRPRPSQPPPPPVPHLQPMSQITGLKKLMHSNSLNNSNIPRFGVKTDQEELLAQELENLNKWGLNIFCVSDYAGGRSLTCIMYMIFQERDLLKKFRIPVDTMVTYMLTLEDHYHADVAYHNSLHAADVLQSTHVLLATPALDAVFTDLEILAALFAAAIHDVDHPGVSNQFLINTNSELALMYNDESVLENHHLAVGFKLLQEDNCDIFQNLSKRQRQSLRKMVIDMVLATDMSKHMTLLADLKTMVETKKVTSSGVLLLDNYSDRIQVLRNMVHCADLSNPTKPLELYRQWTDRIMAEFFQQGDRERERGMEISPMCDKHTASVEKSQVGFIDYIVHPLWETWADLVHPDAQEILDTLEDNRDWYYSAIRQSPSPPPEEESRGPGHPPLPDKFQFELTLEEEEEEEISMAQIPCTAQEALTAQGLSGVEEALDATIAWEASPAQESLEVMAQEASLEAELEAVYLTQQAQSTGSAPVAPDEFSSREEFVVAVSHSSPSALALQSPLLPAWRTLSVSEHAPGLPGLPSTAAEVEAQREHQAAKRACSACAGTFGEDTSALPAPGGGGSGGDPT
D(3) dopamine receptor, sequence (P35462 whole entry): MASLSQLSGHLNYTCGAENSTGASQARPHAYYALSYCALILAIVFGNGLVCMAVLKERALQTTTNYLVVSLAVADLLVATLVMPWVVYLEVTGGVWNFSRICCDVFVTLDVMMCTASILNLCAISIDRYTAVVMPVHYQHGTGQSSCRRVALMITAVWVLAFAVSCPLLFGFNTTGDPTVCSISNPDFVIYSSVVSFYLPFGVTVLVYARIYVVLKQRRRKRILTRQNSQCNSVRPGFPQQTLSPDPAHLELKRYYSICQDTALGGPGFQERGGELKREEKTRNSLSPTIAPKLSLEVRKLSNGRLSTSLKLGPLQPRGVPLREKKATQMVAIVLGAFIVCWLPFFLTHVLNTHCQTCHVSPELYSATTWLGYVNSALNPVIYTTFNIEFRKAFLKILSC
Melanocortin receptor 4, sequence (P32245 whole entry): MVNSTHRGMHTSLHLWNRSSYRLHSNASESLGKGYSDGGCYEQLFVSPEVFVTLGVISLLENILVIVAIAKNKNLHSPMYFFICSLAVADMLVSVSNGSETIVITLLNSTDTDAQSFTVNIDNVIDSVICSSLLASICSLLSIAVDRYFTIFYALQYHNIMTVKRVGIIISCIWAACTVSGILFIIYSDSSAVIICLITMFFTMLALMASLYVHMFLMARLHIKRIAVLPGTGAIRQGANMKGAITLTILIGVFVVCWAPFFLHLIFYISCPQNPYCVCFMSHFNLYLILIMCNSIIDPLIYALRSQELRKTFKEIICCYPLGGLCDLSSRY
Vasopressin V1a receptor, sequence (P37288 whole entry): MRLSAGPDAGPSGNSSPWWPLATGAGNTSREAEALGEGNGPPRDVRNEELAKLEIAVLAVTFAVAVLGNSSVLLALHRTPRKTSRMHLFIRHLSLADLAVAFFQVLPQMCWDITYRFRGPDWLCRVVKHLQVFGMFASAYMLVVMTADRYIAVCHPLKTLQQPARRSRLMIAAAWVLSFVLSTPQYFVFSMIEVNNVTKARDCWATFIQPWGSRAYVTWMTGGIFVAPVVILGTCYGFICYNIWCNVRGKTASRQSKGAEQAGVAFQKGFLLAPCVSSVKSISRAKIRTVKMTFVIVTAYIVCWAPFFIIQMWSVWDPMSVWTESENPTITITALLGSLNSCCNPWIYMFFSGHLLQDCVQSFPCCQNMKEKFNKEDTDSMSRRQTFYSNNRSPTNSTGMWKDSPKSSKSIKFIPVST
Prostaglandin G/H synthase 1, sequence (P23219 whole entry): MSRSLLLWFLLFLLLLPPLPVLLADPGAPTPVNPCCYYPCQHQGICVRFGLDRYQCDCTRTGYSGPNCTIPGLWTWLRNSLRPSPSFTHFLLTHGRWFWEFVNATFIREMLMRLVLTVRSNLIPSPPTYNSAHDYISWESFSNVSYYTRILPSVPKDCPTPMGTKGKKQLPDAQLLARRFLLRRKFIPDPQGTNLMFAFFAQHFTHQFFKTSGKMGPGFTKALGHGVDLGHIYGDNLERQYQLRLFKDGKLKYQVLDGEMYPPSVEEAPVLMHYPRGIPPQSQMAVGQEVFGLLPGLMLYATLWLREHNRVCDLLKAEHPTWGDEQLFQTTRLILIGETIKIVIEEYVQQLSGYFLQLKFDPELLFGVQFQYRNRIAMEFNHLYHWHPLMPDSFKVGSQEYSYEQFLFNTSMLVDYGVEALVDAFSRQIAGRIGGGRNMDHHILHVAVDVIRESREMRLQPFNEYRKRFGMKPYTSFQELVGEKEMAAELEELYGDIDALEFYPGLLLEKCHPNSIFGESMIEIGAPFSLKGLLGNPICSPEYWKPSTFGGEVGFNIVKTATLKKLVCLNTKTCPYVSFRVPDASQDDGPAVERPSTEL
T2 sequence (P41595 whole entry): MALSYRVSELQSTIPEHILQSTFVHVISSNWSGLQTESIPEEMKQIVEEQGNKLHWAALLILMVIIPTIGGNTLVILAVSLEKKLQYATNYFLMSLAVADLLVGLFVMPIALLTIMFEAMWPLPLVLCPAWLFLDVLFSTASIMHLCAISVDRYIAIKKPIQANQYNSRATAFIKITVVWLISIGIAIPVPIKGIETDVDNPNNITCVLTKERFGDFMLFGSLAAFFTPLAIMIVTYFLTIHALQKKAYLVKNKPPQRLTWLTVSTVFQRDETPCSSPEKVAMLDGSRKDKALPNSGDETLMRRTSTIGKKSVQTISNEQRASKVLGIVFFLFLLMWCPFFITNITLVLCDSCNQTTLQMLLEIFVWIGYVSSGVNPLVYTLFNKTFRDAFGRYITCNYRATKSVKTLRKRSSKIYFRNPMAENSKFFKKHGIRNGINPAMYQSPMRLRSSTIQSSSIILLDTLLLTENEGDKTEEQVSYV

On to `CCC[C@H](NC(=O)[C@@H]1[C@H]2CCC[C@H]2CN1C(=O)[C@@H](NC(=O)[C@@H](NC(=O)c1cnccn1)C1CCCCC1)C(C)(C)C)C(=O)C(=O)NC1CC1`, for which the half-maximal activity concentration (AC50) at Vasopressin V1a receptor is over 10 µM; at Melanocortin receptor 4, over 30 µM; on Glucocorticoid receptor, over 30 µM.

On to `CN1CCC(=C2c3ccccc3CCc3cccnc32)CC1` [AZATADINE], for which the AC50 on Vasopressin V1a receptor was over 30 µM; in [1], over 10 µM; in assay [2], over 30 µM; on Melanocortin receptor 4, over 30 µM.

`CCCCC(=O)O[C@]1(C(=O)CO)[C@@H](C)C[C@H]2[C@@H]3CCC4=CC(=O)C=C[C@]4(C)[C@@]3(F)[C@@H](O)C[C@@]21C` [BETAMETHASONE VALERATE]: the AC50 was over 10 µM in [1], over 30 µM in [2], over 30 µM at Melanocortin receptor 4 and 0.004 µM at Glucocorticoid receptor.

For `CC1OC2(CS1)CN1CCC2CC1` (stereo unspecified) [CEVIMELINE], the AC50 at Vasopressin V1a receptor was over 10 µM; in [1], over 10 µM; in assay [2] it was over 30 µM; on Melanocortin receptor 4, over 10 µM; on Glucocorticoid receptor, over 10 µM.

Regarding `CNC1=Nc2ccc(Cl)cc2C(c2ccccc2)=[N+]([O-])C1` [CHLORDIAZEPOXIDE], the AC50 in assay [1] was over 10 µM; in assay [2], over 30 µM; on Melanocortin receptor 4, over 30 µM; at Glucocorticoid receptor it was over 30 µM.

Turning to `Nc1ncn([C@H]2C[C@H](O)[C@@H](CO)O2)c(=O)n1` [DECITABINE], the AC50 (at Vasopressin V1a receptor; in assay [1]; on Melanocortin receptor 4; on Glucocorticoid receptor) was over 30 µM throughout.

For the compound `CC(C)(C)C(=O)OCC(=O)[C@H]1CC[C@H]2[C@@H]3CCC4=CC(=O)CC[C@]4(C)[C@H]3CC[C@]12C` [DESOXYCORTICOSTERONE PIVALATE], the AC50 is over 10 µM at Vasopressin V1a receptor, over 10 µM in [1], over 30 µM in assay [2] and over 10 µM at Melanocortin receptor 4.

As to `CCOC(=O)c1cncn1[C@H](C)c1ccccc1` [ETOMIDATE], the AC50 on Vasopressin V1a receptor was over 10 µM; in assay [1], over 10 µM; in assay [2], over 30 µM; at Melanocortin receptor 4, over 10 µM; on Glucocorticoid receptor it was over 10 µM.

For the compound `CCC1(c2ccccc2)CCC(=O)NC1=O` (stereo unspecified) [GLUTETHIMIDE], the half-maximal activity concentration (AC50) was over 10 µM at Vasopressin V1a receptor, over 10 µM in assay [1], over 30 µM in [2] and over 10 µM at Melanocortin receptor 4.

In the case of `C[C@H](Cc1ccc(O)c(O)c1)[C@@H](C)Cc1ccc(O)c(O)c1` [MASOPROCOL], the AC50 is over 10 µM on Vasopressin V1a receptor; over 10 µM in [1]; 8.4 µM and > 30 µM (2×) in [2]; over 10 µM on Melanocortin receptor 4; 8.7 µM on Glucocorticoid receptor.

In the case of `O=[N+]([O-])c1ccc(O)c2ncccc12` [NITROXOLINE], the AC50 is over 30 µM at Prothrombin; over 30 µM in assay [3]; over 30 µM in assay [4]; over 30 µM at Thromboxane A2 receptor; 20.4 µM at D(3) dopamine receptor; over 30 µM in assay [5]. Besides, the AC50 in assay [1] is over 30 µM; in assay [2] it was over 30 µM; in [6], over 30 µM; on Acetylcholinesterase it was over 10 µM.

Consider `CCCCC1C(=O)N(c2ccccc2)N(c2ccccc2)C1=O` [PHENYLBUTAZONE], for which the AC50 on Vasopressin V1a receptor is over 30 µM; in [1], over 10 µM; on Melanocortin receptor 4, over 30 µM; at Glucocorticoid receptor it was over 10 µM.

`CCCN[C@H]1CCc2nc(N)sc2C1` [PRAMIPEXOLE]: the AC50 is over 30 µM on Vasopressin V1a receptor, over 10 µM in assay [1], 13 µM in [2] and over 30 µM at Melanocortin receptor 4.

Turning to `CNCc1ccc(-c2[nH]c3cc(F)cc4c3c2CCNC4=O)cc1` [RUCAPARIB], the AC50 at Vasopressin V1a receptor, at Melanocortin receptor 4 and on Glucocorticoid receptor was over 30 µM each time.

As to `C[C@H](Cc1cc2c(c(C(N)=O)c1)N(CCCO)CC2)NCCOc1ccccc1OCC(F)(F)F` [SILODOSIN], the AC50 on Prothrombin is over 30 µM; in assay [3], over 30 µM; in assay [4], over 30 µM; at Thromboxane A2 receptor, over 30 µM; on D(3) dopamine receptor, 0.0483 µM; in assay [5] it was over 30 µM. Further, the AC50 in [2] was 0.0029 µM; in assay [6], over 30 µM; at Acetylcholinesterase it was over 30 µM.

Consider `CC1=CCC(C(C)(C)O)CC1O` (stereo unspecified) [SOBREROL], for which the AC50 (at Prothrombin; in assay [3]; in assay [4]; at Thromboxane A2 receptor; on D(3) dopamine receptor; in [5]) was over 30 µM throughout. The AC50 (in [6]; on Acetylcholinesterase) was over 30 µM in each case.

`Cc1noc(NS(=O)(=O)c2ccc(N)cc2)c1C` [SULFISOXAZOLE]: the values for the AC50 (in assay [1]; in assay [2]; on Melanocortin receptor 4) were over 10 µM, 22 µM and over 10 µM, respectively.

Take `CCOC(=O)N1CSC[C@H]1C(=O)O` [TELMESTEINE]: the AC50 (on Prothrombin; in assay [3]; in assay [4]; at Thromboxane A2 receptor; on D(3) dopamine receptor; in assay [5]) was over 30 µM each time. The AC50 (in [6]; on Acetylcholinesterase) was over 30 µM in each case.

As to `CCC(=O)O[C@H]1CC[C@H]2[C@@H]3CCC4=CC(=O)CC[C@]4(C)[C@H]3CC[C@]12C` [TESTOSTERONE PROPIONATE], the AC50 is over 10 µM at Vasopressin V1a receptor; over 10 µM in [1]; over 30 µM in assay [2]; over 10 µM on Melanocortin receptor 4; 0.109 µM at Glucocorticoid receptor.

On to `Clc1ccc(C(Cn2ccnc2)OCc2ccsc2Cl)c(Cl)c1` (stereo unspecified) [TIOCONAZOLE], for which the AC50 is over 30 µM at Vasopressin V1a receptor; over 30 µM in assay [1]; 3.2 µM in assay [2]; over 30 µM at Melanocortin receptor 4; 17.9 µM at Glucocorticoid receptor.

Regarding `Cc1cc2cc3c(C)cc(=O)oc3c(C)c2o1` [TRIOXSALEN], the AC50 (in assay [1]; at Melanocortin receptor 4) was over 10 µM throughout.

As to `CC(C)[C@H](N)C(=O)OCC(CO)OCn1cnc2c(=O)nc(N)[nH]c21` (stereo partly specified) [VALGANCICLOVIR], the AC50 (on Vasopressin V1a receptor; in assay [1]; at Melanocortin receptor 4; at Glucocorticoid receptor) was over 30 µM throughout.

Regarding `CCCC(CCC)C(N)=O` [VALPROMIDE], the AC50 in assay [1] is over 10 µM; in [2], over 30 µM; at Melanocortin receptor 4 it was over 30 µM; on Glucocorticoid receptor, over 30 µM.
